From ChEMBL document CHEMBL4387786, “Mallopenins A-E, Antibacterial Phenolic Derivatives from the Fruits of Mallotus philippensis” (2019)
In brackets after ≈: the same amount, converted by molar mass.

Experiments:
Bacillus cereus = experiment: Antibacterial activity against Bacillus cereus by CLSI guideline based broth microdilution method; format: functional
[1] = system: Staphylococcus epidermidis; experiment: Antibacterial activity against Staphylococcus epidermidis by CLSI guideline based broth microdilution method; format: functional
Streptococcus mutans = experiment: Antibacterial activity against Streptococcus mutans by CLSI guideline based broth microdilution method; format: functional
Micrococcus luteus = experiment: Antibacterial activity against Micrococcus luteus by CLSI guideline based broth microdilution method; format: functional
Staphylococcus aureus = experiment: Antibacterial activity against Staphylococcus aureus by CLSI guideline based broth microdilution method; format: functional
Salmonella typhimurium = experiment: Antibacterial activity against Salmonella typhimurium by CLSI guideline based broth microdilution method; format: functional, Salmonella enterica subsp. enterica serovar Typhimurium
Pseudomonas aeruginosa = experiment: Antibacterial activity against Pseudomonas aeruginosa by CLSI guideline based broth microdilution method; format: functional
Shigella flexneri = experiment: Antibacterial activity against Shigella flexneri by CLSI guideline based broth microdilution method; format: functional
Escherichia coli = experiment: Antibacterial activity against Escherichia coli by CLSI guideline based broth microdilution method; format: functional

Compound	MIC (Bacillus cereus) [µM]	MIC [1] [µM]	MIC (Streptococcus mutans) [µM]	MIC (Micrococcus luteus) [µM]	MIC (Staphylococcus aureus) [µM]	MIC (Salmonella typhimurium; Salmonella enterica) [µM]	MIC (Pseudomonas aeruginosa) [µM]	MIC (Shigella flexneri) [µM]	MIC (Escherichia coli) [µM]	MIC (Salmonella typhimurium; Salmonella enterica subsp. enterica serovar Typhimurium) [µM]
CC(C)=CCc1c(O)c(C(=O)/C=C/c2ccccc2)c2c(c1O)[C@H]1[C@@H]3[C@@H](CC[C@]3(C)O2)C1(C)C	> 100	> 100	> 100	> 100	> 100	> 100	> 100	> 100	> 100	
CC(C)=CCC/C(C)=C/Cc1c(O)c2c(c(C(=O)/C=C/c3ccccc3)c1O)OC(C)(C)C=C2	> 100	> 100	> 100	> 100	> 100	> 100	> 100	> 100	> 100	
CC(=O)c1c(O)c(C)c(O)c(Cc2c3c(c(O)c4c2OC(c2ccccc2)CC4=O)C=CC(C)(C)O3)c1O (centres undefined)	> 100	> 100	> 100	> 100	> 100	> 100	> 100	> 100	> 100	
CC(=O)c1c(O)c(C)c(O)c(Cc2c(O)c3c(c(C(=O)/C=C/c4ccc(O)cc4)c2O)OC(C)(C)C=C3)c1O	3.8 (≈ 2.02 µg/mL)	> 100	3.8 (≈ 2.02 µg/mL)	30.1 (≈ 16 µg/mL)	15 (≈ 7.99 µg/mL)	> 100	> 100	> 100	7.5 (≈ 3.99 µg/mL)	
CC(=O)c1c(O)c(C)c(O)c(Cc2c3c(c(O)c4c2OC(c2ccc(O)cc2)CC4=O)C=CC(C)(C)O3)c1O (centres undefined)	30.1 (≈ 16 µg/mL)	> 100	> 100	> 100	> 100	> 100	> 100	> 100	> 100	
CN[C@H](CC(C)C)C(=O)N[C@H]1C(=O)N[C@@H](CC(N)=O)C(=O)N[C@H]2C(=O)N[C@H]3C(=O)N[C@H](C(=O)N[C@H](C(=O)O)c4cc(O)cc(O)c4-c4cc3ccc4O)[C@H](O)c3ccc(c(Cl)c3)Oc3cc2cc(c3O[C@@H]2O[C@H](CO)[C@@H](O)[C@H](O)[C@H]2O[C@H]2C[C@](C)(N)[C@H](O)[C@H](C)O2)Oc2ccc(cc2Cl)[C@H]1O [VANCOMYCIN]	0.1 (≈ 0.145 µg/mL)	0.2 (≈ 0.29 µg/mL)	0.2 (≈ 0.29 µg/mL)	0.2 (≈ 0.29 µg/mL)	0.2 (≈ 0.29 µg/mL)					
CC(=O)c1c(O)c(CC=C(C)C)c2c3c1OC1(C)CCC(C3C1)C(C)(C)O2 (racemic)	> 100	> 100	> 100	> 100	> 100	> 100	> 100	> 100	> 100	
CC(=O)c1c(O)c(C)c(O)c(Cc2c(O)c(CC=C(C)C)c(O)c3c2OC(c2ccccc2)CC3=O)c1O (centres undefined)	30.9 (≈ 16 µg/mL)	> 100	30.9 (≈ 16 µg/mL)	30.9 (≈ 16 µg/mL)	61.8 (≈ 32 µg/mL)	> 100	> 100	> 100	30.9 (≈ 16 µg/mL)	
CC1(C)C=Cc2c(O)c3c(c(CC(=O)O)c2O1)O[C@H](c1ccccc1)CC3=O	> 100	> 100	> 100	> 100	> 100	> 100	> 100	> 100	> 100	
CC(=O)c1c(O)c(C)c(O)c(Cc2c(O)c3c(c(C(=O)/C=C/c4ccccc4)c2O)OC(C)(C)C=C3)c1O [ROTTLERIN]	15.5 (≈ 8.01 µg/mL)	> 100	15.5 (≈ 8.01 µg/mL)	15.5 (≈ 8.01 µg/mL)	15.5 (≈ 8.01 µg/mL)	> 100	> 100	> 100	15.5 (≈ 8.01 µg/mL)	
GENTAMICIN							1	1	0.5	1
COCc1c2c(c(O)c3c1O[C@H](c1ccccc1)CC3=O)C=CC(C)(C)O2	> 100	> 100	> 100	> 100	> 100	> 100	> 100	> 100	> 100	
